Experimental data reported in BindingDB's records for patent US10870641 (Ribon Therapeutics, 2020).

Target: T1, Protein mono-ADP-ribosyltransferase TIPARP (Homo sapiens, UniProt Q7Z3E1)
T1 sequence (Q7Z3E1 whole entry): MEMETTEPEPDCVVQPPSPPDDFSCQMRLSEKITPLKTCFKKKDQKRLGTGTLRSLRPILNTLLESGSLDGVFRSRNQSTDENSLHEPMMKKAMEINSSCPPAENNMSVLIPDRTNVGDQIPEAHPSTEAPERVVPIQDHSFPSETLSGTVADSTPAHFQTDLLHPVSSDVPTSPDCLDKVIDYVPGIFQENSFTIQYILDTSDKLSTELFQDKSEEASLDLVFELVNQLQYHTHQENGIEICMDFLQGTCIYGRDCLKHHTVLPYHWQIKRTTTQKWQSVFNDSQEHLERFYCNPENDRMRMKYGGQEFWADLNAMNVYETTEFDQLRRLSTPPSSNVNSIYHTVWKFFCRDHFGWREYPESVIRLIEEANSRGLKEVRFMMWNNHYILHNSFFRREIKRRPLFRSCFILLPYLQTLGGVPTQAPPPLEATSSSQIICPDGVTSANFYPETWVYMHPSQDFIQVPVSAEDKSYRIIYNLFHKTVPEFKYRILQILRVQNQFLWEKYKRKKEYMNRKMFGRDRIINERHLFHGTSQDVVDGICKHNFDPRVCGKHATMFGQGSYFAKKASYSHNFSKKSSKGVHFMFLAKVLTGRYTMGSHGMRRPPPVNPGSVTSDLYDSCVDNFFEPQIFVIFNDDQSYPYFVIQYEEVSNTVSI
Experiment: Enzymatic Assay
Experimental: Displacement of Probe A, a biotinylated probe binding to the TIPARP active site, was measured using a time-resolved fluorescence energy transfer (TR-FRET) assay. 20 nL of a dose response curve of each test compound was spotted in black 384-well polystyrene proxiplates (Perkin Elmer) using a Mosquito (TTP Labtech). Reactions were performed in a 8 μL volume by adding […] of TIPARP and Probe A in assay buffer (20 mM HEPES pH=8, 100 mM NaCl, 0.1% bovine serum albumin, 2 mM DTT and 0.002% Tween20), incubating with test compound at 25° C. for 30 min, then adding 2 μL of ULight-anti 6×His and LANCE Eu-W1024 labeled streptavidin (Perkin Elmer). The final concentrations of TIPARP and Probe A were 6 nM and 2 nM, respectively.

IC50	SMILES
> 1000 nM	N#Cc1cnc(N2CCN(C(=O)c3cc(OC[C@@H]4c5ccccc5CN4c4cn[nH]c(=O)c4C(F)(F)F)ccn3)CC2)nc1 [US10870641, Example 64B]
< 100 nM	N#Cc1ccc(N2CCN(C(=O)/C=C/COC[C@H]3CCCN3c3cn[nH]c(=O)c3C(F)(F)F)CC2)nc1 [US10870641, Example 96B]
in the range around 550 nM	C[C@@H](CC(=O)N1CCN(c2ccc(C#N)cn2)CC1)OCCOc1cn[nH]c(=O)c1C(F)(F)F [US10870641, Example 538A]
